# Measured values taken from patent US20100081690A1, “OXAZOLE DERIVATIVES AS POSITIVE ALLOSTERIC MODULATORS OF METABOTROPIC GLUTAMATE RECEPTORS” (ADDEX PHARMA SA, priority 2006, published 2010).
# How the values were obtained:
# mGluR5 = biological target: T1, mGluR5 (Rattus norvegicus, UniProt P31424); experiment: mGluR5 binding assay ([3H]-MPEP, rat brain membranes); conditions: competition with 3 nM [3H]-MPEP, rat cortical membranes, 1 h at 4° C.
# T1 construct: positive allosteric modulators of mGluR5 receptors in native preparations; endogenous in cells; host or cells: primary cortical astrocytes from Sprague-Dawley rat embryos (E16-19)
# T1 sequence (P31424 21-1203): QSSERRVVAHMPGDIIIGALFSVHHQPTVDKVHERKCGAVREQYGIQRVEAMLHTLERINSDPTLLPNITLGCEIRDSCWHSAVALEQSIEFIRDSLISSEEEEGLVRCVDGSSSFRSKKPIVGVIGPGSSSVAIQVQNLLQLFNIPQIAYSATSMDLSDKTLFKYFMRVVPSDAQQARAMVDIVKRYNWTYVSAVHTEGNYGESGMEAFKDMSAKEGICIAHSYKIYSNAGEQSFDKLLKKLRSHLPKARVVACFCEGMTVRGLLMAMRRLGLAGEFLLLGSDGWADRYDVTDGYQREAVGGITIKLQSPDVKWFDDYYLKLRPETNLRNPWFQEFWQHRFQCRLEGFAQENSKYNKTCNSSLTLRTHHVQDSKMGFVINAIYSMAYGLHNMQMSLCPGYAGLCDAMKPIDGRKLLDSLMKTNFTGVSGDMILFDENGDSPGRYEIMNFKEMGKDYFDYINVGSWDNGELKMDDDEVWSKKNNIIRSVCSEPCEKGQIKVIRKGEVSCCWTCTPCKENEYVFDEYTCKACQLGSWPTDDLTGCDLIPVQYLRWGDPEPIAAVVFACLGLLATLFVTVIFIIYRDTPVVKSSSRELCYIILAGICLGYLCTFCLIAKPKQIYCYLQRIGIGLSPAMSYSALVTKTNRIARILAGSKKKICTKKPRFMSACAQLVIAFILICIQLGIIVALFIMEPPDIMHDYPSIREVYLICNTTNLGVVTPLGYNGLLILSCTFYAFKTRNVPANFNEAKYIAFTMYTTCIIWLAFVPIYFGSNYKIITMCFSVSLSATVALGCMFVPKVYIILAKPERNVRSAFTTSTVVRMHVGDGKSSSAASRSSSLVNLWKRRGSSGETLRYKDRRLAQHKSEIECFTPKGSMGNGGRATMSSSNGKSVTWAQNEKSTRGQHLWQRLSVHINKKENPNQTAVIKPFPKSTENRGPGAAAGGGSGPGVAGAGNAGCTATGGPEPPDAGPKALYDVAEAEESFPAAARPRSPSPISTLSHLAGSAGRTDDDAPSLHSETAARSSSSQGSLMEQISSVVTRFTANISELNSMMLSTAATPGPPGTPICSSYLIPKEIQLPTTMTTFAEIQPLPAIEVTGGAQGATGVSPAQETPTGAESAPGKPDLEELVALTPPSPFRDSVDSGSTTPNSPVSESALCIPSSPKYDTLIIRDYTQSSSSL
# Excerpt: Activity of compounds of the invention was examined following a radioligand binding technique using whole rat brain and tritiated 2-methyl-6-(phenylethynyl)-pyridine ([^3H]-MPEP) as a ligand following similar methods than those described in Gasparini et al. (2002) Bioorg. Med. Chem. Lett. 12:407-409 and in Anderson et al. (2002) J. Pharmacol. Exp. Ther. 303 (3) 1044-1051.
# Cortices were dissected out from brains of 200-300 g Sprague-Dawley rats (Charles River Laboratories, L'Arbresle, France). Tissues were homogenized in 10 volumes (vol/wt) of ice-cold 50 mM Hepes-NaOH (pH 7.4) using a Polytron disrupter (Kinematica AG, Luzern, Switzerland) and centrifuged for 30 min at 40,000 g. (4° C.). […] Protein concentration was determined by the Bradford method (Bio-Rad protein assay, Reinach, Switzerland) with bovine serum albumin as standard.
# Membranes were thawed and resuspended in binding buffer containing 20 mM HEPES-NaOH, 3 mM MgCl2, 3 mM CaCl2, 100 mM NaCl, pH 7.4. […] Radioactivity was determined by liquid scintillation spectrometry using a 96-well plate reader (TopCount, Perkin-Elmer, Downers Grove, USA).
# The inhibition curves were generated using the Prism GraphPad program (Graph Pad Software Inc, San Diego, USA). […] The mean of IC50 obtained from at least three independent experiments of selected molecules performed in duplicate were calculated.
structure (smiles),measurement,setting,value
"O=C(c1ccc(F)cc1)N1CCC[C@H](c2nc(-c3cc(F)c[nH]3)co2)C1 [Example 1, (4-Fluoro-phenyl)-{(S)-3-[4-(4-fluoro-1H-pyrrol-2-yl)-oxazol-2-yl]-piperidin-1-yl}-methanone]",IC50,mGluR5,< 10 µM
same,melting point,,136 °C
